In patent US20140377340A1, “HLA-DR BINDING PEPTIDES AND THEIR USES” (priority 2007, published 2014):

Experiments:
[1] = test system: 15 different HLA-DR molecules; assay: HLA-DR binding assays, panel of 15 different HLA-DR molecules (breadth of binding); settings: number of the 15 HLA-DR molecules bound (binders: 1000 nM or better)
[2] = molecular target: T1, purified HLA DRB1*1501 (Homo sapiens, UniProt P01903+P01911); assay: HLA-DR radioligand binding inhibition assay, DRB1*1501
T1 construct: purified from EBV transformed homozygous cell lines or single MHC allele transfected 721.221, C1R, or fibroblast lines; made in house
Procedure: (§1) Instead, wells of an opaque white 96-well Optiplate (Packard) are coated with 3 μg (100 μl@ 30 μg/ml) of HLA-specific antibody (Ab) that “capture” complexes of radiolabeled MHC and unlabeled peptide transferred from the molecular binding assay plate in 100 μl of 0.05% NP40/PBS. After a 3-hour incubation period, the supernatant is decanted and scintillation fluid (Microscint 20) added. Captured complexes are then measured on a microplate scintillation and luminescence counter (TopCount NXTTM; Packard).
(§2) HLA-DR purification. Fifteen distinct HLA-DR molecules were used in quantitative assays to measure the binding of peptides to solubilized HLA-DR molecules. […] Briefly, columns of inactivated Sepharose CL4B and Protein A Sepharose were used as pre-columns. HLA-DR molecules were captured by passage of lysates over LB3.1 monoclonal antibody (anti-HLA-DRA) columns. Antibody columns were washed with 10 mM Tris-HCL, pH8.0 with 1% (v/v) NP-40, followed by PBS containing 0.4% (w/v) n-octylglucoside.
(§3) Briefly, 1-10 nM of radiolabeled peptide was co-incubated for 2 days at either room temperature or 37° C. with 1 μM to 1 nM purified HLA-DR molecules in the presence of a cocktail of protease inhibitors. Assays were performed at various pH conditions, ranging from pH 4 to pH 7. […] After incubation, the percentage of HLA-DR-bound radioactivity is determined by capturing HLA-DR/peptide complexes on Optiplates (Packard Instruments, Meriden, Conn.) coated with the LB3.1 antibody and determining bound counts per minute using the TopCount microscintillation counter (Packard Instruments).

[3] = molecular target: T2, purified HLA DRB1*1101 (Homo sapiens, UniProt P01903+P01911, A100R/A169T/A87E/I96F/K41T/L162R/M171V/P40S/Q125H/Q178H/Q39Y/Q99D/R42S/S66Y/T262R/V115G/W38E); assay: HLA-DR radioligand binding inhibition assay, DRB1*1101; settings: IC50 nM purified HLA DRB1 *1101, purified HLA DRB1*1101
T2 construct: purified from EBV transformed homozygous cell lines or single MHC allele transfected 721.221, C1R, or fibroblast lines; made in house
Procedure: as §1, §2, §3

[4] = molecular target: T3, purified HLA DRB1*0401 (Homo sapiens, UniProt P01903+P01911, A100K/A169T/F76Y/I96L/K127E/L162R/M171V/N62H/P40V/Q125Y/R42H/S133A/S149N/S66Y/V115G/V209L/W38E); assay: HLA-DR radioligand binding inhibition assay, DRB1*0401; settings: IC50 nM purified HLA DRB1 *0401, purified HLA DRB1*0401
T3 construct: purified from EBV transformed homozygous cell lines or single MHC allele transfected 721.221, C1R, or fibroblast lines; made in house
Procedure: as §1, §2, §3

[5] = molecular target: T4, purified HLA DRB1*0405 (Homo sapiens, UniProt P01903+P01911, A100R/A169T/D86S/F76Y/I96L/K127E/L162R/M171V/N62H/P40V/Q125Y/R42H/S133A/S149N/S66Y/V115G/V209L/W38E); assay: HLA-DR radioligand binding inhibition assay, DRB1*0405; settings: IC50 nM purified HLA DRB1 *0405, purified HLA DRB1*0405
T4 construct: purified from EBV transformed homozygous cell lines or single MHC allele transfected 721.221, C1R, or fibroblast lines; made in house
Procedure: as §1, §2, §3

[6] = molecular target: T5, purified HLA DRB5*0101 (Homo sapiens, UniProt P01903+Q30154); assay: HLA-DR radioligand binding inhibition assay, DRB5*0101; settings: IC50 nM purified HLA DRB5 *0101, purified HLA DRB5*0101
T5 construct: purified from EBV transformed homozygous cell lines or single MHC allele transfected 721.221, C1R, or fibroblast lines; made in house
Procedure: as §1, §2, §3

[7] = molecular target: T6, purified HLA DRB1*1302 (Homo sapiens, UniProt P01903+P01911, A100E/A169T/K41T/L162R/M171V/P40S/Q125H/Q178H/Q39Y/Q99D/R42S/S66N/T262R/V115G/W38E/Y61H); assay: HLA-DR radioligand binding inhibition assay, DRB1*1302
T6 construct: purified from EBV transformed homozygous cell lines or single MHC allele transfected 721.221, C1R, or fibroblast lines; made in house
Procedure: as §1, §2, §3

[8] = molecular target: T7, purified HLA DRB1*0101 (Homo sapiens, UniProt P01903+P01911, A100R/D57E/F55L/F60I/F76Y/I96L/L162R/M171V/P40L/Q125E/R42F/V115G/Y59C); assay: HLA-DR radioligand binding inhibition assay, DRB1*0101; settings: IC50 nM purified HLA DRB1 *0101, purified HLA DRB1*0101
T7 construct: purified from EBV transformed homozygous cell lines or single MHC allele transfected 721.221, C1R, or fibroblast lines; made in house
Procedure: as §1, §2, §3

[9] = molecular target: T8, purified HLA DRB1*0701 (Homo sapiens, UniProt P01903+P01911, A100R/A102G/A103Q/D57E/D86V/E43K/F76Y/K127E/L162R/M171V/P40G/Q125H/Q99D/R33Q/R42Y/R54Q/S133A/S66F/T210M/V115G/Y107V/Y59L/Y89S); assay: HLA-DR radioligand binding inhibition assay, DRB1*0701; settings: IC50 nM purified HLA DRB1 *0701, purified HLA DRB1*0701
T8 construct: purified from EBV transformed homozygous cell lines or single MHC allele transfected 721.221, C1R, or fibroblast lines; made in house
Procedure: as §1, §2, §3

T2 sequence (P01903 26-254, other chains not shown): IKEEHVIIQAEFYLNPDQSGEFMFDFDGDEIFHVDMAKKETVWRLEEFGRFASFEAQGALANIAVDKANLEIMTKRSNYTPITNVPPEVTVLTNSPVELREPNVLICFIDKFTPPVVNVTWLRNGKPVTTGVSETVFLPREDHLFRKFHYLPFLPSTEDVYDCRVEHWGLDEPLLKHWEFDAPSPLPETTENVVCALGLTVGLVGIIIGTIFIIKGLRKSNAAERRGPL

Compound: CC(C)C[C@H](NC(=O)[C@H](CO)NC(=O)[C@H](C)NC(=O)[C@H](CC(N)=O)NC(=O)[C@@H](NC(=O)[C@@H]1CCCN1C(=O)[C@H](CC(C)C)NC(=O)[C@H](Cc1ccc(O)cc1)NC(=O)[C@@H](NC(=O)[C@@H](N)CC(C)C)[C@@H](C)O)[C@@H](C)O)C(=O)N[C@@H](CO)C(=O)N[C@@H](Cc1ccccc1)C(=O)N[C@@H](CC(C)C)C(=O)N[C@@H](CCC(N)=O)C(=O)N[C@@H](CC(=O)O)C(=O)O [Peptide 9019.0031]
- Total XRN [1]: 12

Compound: CC[C@H](C)[C@H](NC(=O)[C@@H](NC(=O)[C@H](CC(C)C)NC(=O)[C@H](CCCCN)NC(=O)[C@H](C)NC(=O)[C@@H](N)[C@@H](C)O)[C@@H](C)O)C(=O)N[C@@H](CCC(=O)O)C(=O)N[C@@H](CO)C(=O)N[C@H](C(=O)N1CCC[C@H]1C(=O)N[C@@H](Cc1ccccc1)C(=O)N[C@@H](CC(N)=O)C(=O)N[C@H](C(=O)N[C@@H](C)C(=O)N[C@@H](CCC(=O)O)C(=O)O)C(C)C)[C@@H](C)O [Peptide 9019.0106]
- Total XRN [1]: 9

Compound: CC[C@H](C)[C@H](NC(=O)[C@@H](NC(=O)[C@@H](NC(=O)[C@H](Cc1ccccc1)NC(=O)[C@H](CCCNC(=N)N)NC(=O)[C@H](CCC(N)=O)NC(=O)[C@@H]1CCCN1C(=O)[C@H](CC(=O)O)NC(=O)[C@H](CCCNC(=N)N)NC(=O)[C@H](C)NC(=O)[C@H](CCSC)NC(=O)[C@H](CCCNC(=N)N)NC(=O)[C@H](CO)NC(=O)[C@@H](N)Cc1ccccc1)C(C)C)C(C)C)C(=O)N[C@@H](CCC(N)=O)C(=O)O [Peptide 9019.0004]
- Total XRN [1]: 10

Compound: CSCC[C@H](NC(=O)[C@H](CCCCN)NC(=O)[C@H](CS)NC(=O)[C@H](CCC(N)=O)NC(=O)[C@H](CCCCN)NC(=O)[C@H](CC(C)C)NC(=O)[C@H](CC(N)=O)NC(=O)[C@H](Cc1ccc(O)cc1)NC(=O)[C@H](CC(C)C)NC(=O)CN)C(=O)N[C@@H](CO)C(=O)N[C@@H](CC(C)C)C(=O)N[C@@H](CC(N)=O)C(=O)NCC(=O)N[C@@H](CCC(N)=O)C(=O)O [Peptide 9019.0191]
- Total XRN [1]: 6

Compound: EVLILVHNLPQHLFQ [Peptide 9019.0107]
- Total XRN [1]: 14

Compound: CC(C)C[C@H](NC(=O)[C@@H](N)Cc1ccc(O)cc1)C(=O)N[C@@H](Cc1c[nH]c2ccccc12)C(=O)N[C@@H](Cc1c[nH]c2ccccc12)C(=O)N[C@H](C(=O)N[C@@H](CC(N)=O)C(=O)N[C@@H](CC(N)=O)C(=O)N[C@@H](CCC(N)=O)C(=O)N[C@@H](CO)C(=O)N[C@@H](CC(C)C)C(=O)N1CCC[C@H]1C(=O)N[C@H](C(=O)N[C@@H](CO)C(=O)N1CCC[C@H]1C(=O)N[C@@H](CCCNC(=N)N)C(=O)O)C(C)C)C(C)C [Peptide 9019.0126]
- Total XRN [1]: 10

Compound: CC(C)[C@H](NC(=O)[C@H](Cc1ccccc1)NC(=O)[C@H](Cc1c[nH]c2ccccc12)NC(=O)[C@H](CO)NC(=O)[C@H](Cc1ccc(O)cc1)NC(=O)[C@@H](N)CCC(N)=O)C(=O)N[C@@H](CC(N)=O)C(=O)NCC(=O)N[C@H](C(=O)N[C@@H](Cc1ccccc1)C(=O)N[C@@H](CCC(N)=O)C(=O)N[C@@H](CCC(N)=O)C(=O)N[C@@H](CO)C(=O)N[C@H](C(=O)N[C@@H](CCC(N)=O)C(=O)O)[C@@H](C)O)[C@@H](C)O [Peptide 9019.0122]
- IC50 [2]: > 20000 nM
- IC50 [3]: 230 nM
- IC50 [4]: 21 nM

Compound: CC[C@H](C)[C@H](NC(=O)[C@H](CCCNC(=N)N)NC(=O)[C@H](CCC(=O)O)NC(=O)[C@H](CC(C)C)NC(=O)[C@@H](NC(=O)[C@H](CCC(N)=O)NC(=O)[C@H](CC(=O)O)NC(=O)[C@@H](N)CC(C)C)C(C)C)C(=O)N[C@@H](CO)C(=O)N[C@H](C(=O)N[C@@H](CCSC)C(=O)N[C@@H](CCCNC(=N)N)C(=O)N[C@@H](CC(C)C)C(=O)N1CCC[C@H]1C(=O)N[C@@H](CC(=O)O)C(=O)O)[C@@H](C)O [Peptide 9019.0189]
- Total XRN [1]: 12

Compound: CC[C@H](C)[C@H](NC(=O)[C@@H](NC(=O)[C@@H](NC(=O)[C@@H](NC(=O)[C@@H](NC(=O)[C@@H](NC(=O)[C@@H](N)CCCNC(=N)N)[C@@H](C)O)[C@@H](C)O)C(C)C)[C@@H](C)O)[C@@H](C)O)C(=O)N[C@H](C(=O)N[C@H](C(=O)N[C@@H](Cc1ccc(O)cc1)C(=O)N[C@@H](C)C(=O)N[C@@H](CCC(=O)O)C(=O)N1CCC[C@H]1C(=O)N1CCC[C@H]1C(=O)N[C@@H](CCCCN)C(=O)O)C(C)C)[C@@H](C)O [Peptide 9019.0124]
- IC50 [5]: 32 nM
- IC50 [2]: 83 nM
- IC50 [3]: > 20000 nM

Compound: CC[C@H](C)[C@H](NC(=O)[C@H](CCC(=O)O)NC(=O)[C@@H](NC(=O)[C@H](CC(C)C)NC(=O)[C@H](CO)NC(=O)[C@H](CCCNC(=N)N)NC(=O)[C@H](CC(C)C)NC(=O)[C@H](CCC(N)=O)NC(=O)[C@H](CC(C)C)NC(=O)[C@H](CCC(=O)O)NC(=O)[C@H](CCCNC(=N)N)NC(=O)[C@H](CC(C)C)NC(=O)CNC(=O)CNC(=O)[C@@H]1CCCN1)[C@@H](C)O)C(=O)O [Peptide 9019.0038]
- IC50 [5]: 110 nM
- IC50 [2]: 4410 nM

Compound: CC[C@H](C)[C@H](NC(=O)[C@@H](NC(=O)[C@@H]1CCCN1C(=O)[C@H](CC(=O)O)NC(=O)[C@@H](N)CO)C(C)C)C(=O)N[C@@H](CC(C)C)C(=O)N[C@@H](CC(N)=O)C(=O)N[C@H](C(=O)N[C@@H](CC(C)C)C(=O)N[C@@H](Cc1ccc(O)cc1)C(=O)NCC(=O)N1CCC[C@H]1C(=O)N[C@@H](CC(=O)O)C(=O)N[C@@H](CC(=O)O)C(=O)N1CCC[C@H]1C(=O)O)C(C)C [Peptide 9019.0127]
- IC50 [6]: > 20000 nM
- IC50 [2]: 5700 nM

Compound: CSCC[C@H](NC(=O)[C@H](C)NC(=O)[C@H](CC(C)C)NC(=O)[C@@H]1CCCN1C(=O)[C@H](Cc1ccccc1)NC(=O)[C@@H](NC(=O)[C@H](CCC(=O)O)NC(=O)[C@H](CCC(=O)O)NC(=O)[C@@H](N)CCC(=O)O)C(C)C)C(=O)N[C@@H](CC(N)=O)C(=O)N[C@@H](Cc1ccc(O)cc1)C(=O)N[C@@H](CC(C)C)C(=O)N[C@@H](CC(=O)O)C(=O)N[C@@H](CCCNC(=N)N)C(=O)N[C@@H](Cc1ccccc1)C(=O)O [Peptide 9019.0152]
- IC50 [7]: 26 nM
- IC50 [8]: 850 nM
- IC50 [2]: 77 nM

Compound: CC[C@H](C)[C@H](NC(=O)[C@@H](NC(=O)[C@@H]1CCCN1C(=O)[C@H](C)NC(=O)[C@H](CC(=O)O)NC(=O)[C@@H]1CCCN1C(=O)CNC(=O)[C@H](Cc1ccc(O)cc1)NC(=O)[C@H](CC(C)C)NC(=O)[C@@H](NC(=O)[C@H](CC(N)=O)NC(=O)[C@@H](N)CC(C)C)C(C)C)[C@@H](C)O)C(=O)N[C@@H](CO)C(=O)N1CCC[C@H]1C(=O)N[C@@H](CC(C)C)C(=O)O [Peptide 9019.0120]
- IC50 [5]: > 20000 nM
- IC50 [9]: 410 nM
- IC50 [6]: > 20000 nM
- IC50 [3]: > 20000 nM
